Legend:
Assay type in all cases: in vivo
[1] = system: Nightshade; assay: Test C preemergence; settings: Rate 500 g/ha, visual evaluation after 12 to 14 days
[2] = system: crabgrass (Digitaria sanguinalis); assay: Test B preemergence
Procedure, shortened: (§1)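 Seeds were planted and sprayed preemergence with test chemical in a non-phytotoxic solvent mixture containing surfactant; postemergence plants (2 to 18 cm, 1- to 4-leaf stage) received the same formulation. Greenhouse hold 13 to 15 days, then visual rating versus untreated controls on a 0–100 scale (0 no effect, 100 complete control).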

[3] = system: corn (Zea mays); assay: Test B preemergence
Procedure, shortened: as §1

[4] = system: giant foxtail (Setaria faberii); assay: Test B preemergence
Procedure, shortened: as §1

[5] = system: cocklebur (Xanthium strumarium); assay: Test B preemergence
Procedure, shortened: as §1

[6] = system: morning glory (Ipomoea hederacea); assay: Test B preemergence
Procedure, shortened: as §1

[7] = system: velvetleaf (Abutilon theophrasti); assay: Test B preemergence
Procedure, shortened: as §1

[8] = system: lambsquarters (Chenopodium album); assay: Test B preemergence
Procedure, shortened: as §1

[9] = system: rice (Oryza saliva); assay: Test B preemergence
Procedure, shortened: as §1

[10] = system: barnyardgrass (Echinochloa crus-galli); assay: Test B preemergence
Procedure, shortened: as §1

[11] = system: Surinam grass (Brachiaria decumbens); assay: Test B preemergence
Procedure, shortened: as §1

[12] = system: pigweed (Amaranthus retroflexus); assay: Test B preemergence
Procedure, shortened: as §1

[13] = system: Sunflower; assay: Test C preemergence; settings: Rate 62 g/ha, scale 0 to 100
[14] = system: woolly cupgrass (Eriochloa villosa); assay: Test C preemergence; settings: for Plant response rating (0 to 100), Cupgrass, Woolly: Rate 500 g/ha, visual evaluation after 12 to 14 days
Procedure, shortened: (§2)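 Visual injury scores of 0–100, with 100 meaning complete control, were given relative to controls after 12–14 days in the greenhouse. Treatments used a surfactant-containing non-phytotoxic solvent formulation, sprayed on seeded pots preemergence or on 1–4-leaf plants of 2–18 cm postemergence.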

[15] = system: Sunflower; assay: Test C preemergence; settings: Rate 125 g/ha; scale 0 to 100, 0 no effect, 100 complete control
[16] = system: velvetleaf (Abutilon theophrasti); assay: Test C preemergence; settings: for Plant response rating (0 to 100), Velvetleaf: Rate 500 g/ha, visual evaluation after 12 to 14 days
Procedure, shortened: as §2

[17] = system: pigweed (Amaranthus retroflexus); assay: Test C preemergence; settings: for Plant response rating (0 to 100), Pigweed: Rate 500 g/ha, visual evaluation after 12 to 14 days
Procedure, shortened: as §2

[18] = system: rice (Oryza saliva); assay: Test C flooded paddy test; settings: for Rice plant response rating: Flooded Paddy, Rate 500 g/ha, scale 0 to 100, 0 no effect, 100 complete control; for Plant response rating, Rice / Plant response rating (scale 0 to 100), Rice: flooded paddy test; for Plant response rating, Rice: scale 0 to 100 (0 no effect, 100 complete control); for Plant response rating (scale 0 to 100), Rice: Rate 62 g/ha, visually evaluated after 12 to 14 days, 0 = no effect, 100 = complete control
Procedure, shortened: (§3)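 Response on a 0-to-100 scale (no effect to complete control) was assessed by eye versus controls. Plants had reached 2 leaves when treated in flooded paddy conditions. The assessment took place after 12–14 days of greenhouse growth.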

[19] = system: smallflower flatsedge (Cyperus difformis); assay: Test C flooded paddy test; settings: for Flatsedge plant response rating: Flooded Paddy, Rate 500 g/ha, scale 0 to 100, 0 no effect, 100 complete control; for Plant response rating, Flatsedge / Plant response rating (scale 0 to 100), Flatsedge: flooded paddy test; for Plant response rating, Flatsedge: scale 0 to 100 (0 no effect, 100 complete control); for Plant response rating (scale 0 to 100), Flatsedge: Rate 62 g/ha, visually evaluated after 12 to 14 days, 0 = no effect, 100 = complete control
Procedure, shortened: as §3

[20] = system: barnyardgrass (Echinochloa crus-galli); assay: Test C flooded paddy test; settings: for Barnyardgrass plant response rating: Flooded Paddy, Rate 500 g/ha, scale 0 to 100, 0 no effect, 100 complete control; for Plant response rating, Barnyardgrass / Plant response rating (scale 0 to 100), Barnyardgrass: flooded paddy test; for Plant response rating, Barnyardgrass: scale 0 to 100 (0 no effect, 100 complete control); for Plant response rating (scale 0 to 100), Barnyardgrass: Rate 62 g/ha, visually evaluated after 12 to 14 days, 0 = no effect, 100 = complete control
Procedure, shortened: as §3

[21] = system: duck salad (Heteranthera limosa); assay: Test C flooded paddy test; settings: for Ducksalad plant response rating: Flooded Paddy, Rate 500 g/ha, scale 0 to 100, 0 no effect, 100 complete control; for Plant response rating, Ducksalad / Plant response rating (scale 0 to 100), Ducksalad: flooded paddy test; for Plant response rating, Ducksalad: scale 0 to 100 (0 no effect, 100 complete control); for Plant response rating (scale 0 to 100), Ducksalad: Rate 62 g/ha, visually evaluated after 12 to 14 days, 0 = no effect, 100 = complete control
Procedure, shortened: as §3

[22] = system: Sunflower; assay: Test C preemergence; settings: Rate 500 g/ha, visual evaluation after 12 to 14 days
[23] = Preemergence, Rate 500 g/ha, scale 0 to 100, 0 no effect, 100 complete control
[24] = preemergence, Rate 125 g/ha, scale of 0 to 100 where 0 is no effect and 100 is complete control, 13 to 15 days
[25] = Rate 125 g/ha, scale 0 to 100, 0 no effect, 100 complete control
[26] = preemergence, Rate 62 g/ha, scale 0 to 100
[27] = preemergence, Rate 250 g/ha, scale 0 to 100, 0 no effect, 100 complete control

CCC(CC)c1ccn(C2CCN(c3ccc(Br)c(OC)c3)C2=O)n1 (stereo not drawn) [Compound 143]
55: Plant response rating (scale 0 to 100), Barnyardgrass [20]
80: Plant response rating, Velvetleaf [7, 23] | Plant response rating, Surinam grass [11, 24] | Plant response rating, Sunflower [15]
0: Plant response rating, Corn [3, 24] | Plant response rating, Cocklebur [5, 24] | Plant response rating, Rice [9, 24] | Plant response rating (scale 0 to 100), Rice [18]
60: Plant response rating, Velvetleaf [7, 24] | Plant response rating, Sunflower [13] | Rice plant response rating [18]
100: Plant response rating (0 to 100), Nightshade [1] | Plant response rating, Crabgrass [2, 23] | Plant response rating, Crabgrass [2, 24] | Plant response rating, Foxtail, Giant [4, 23] | Plant response rating, Foxtail, Giant [4, 24] | Plant response rating, Lambsquarters [8, 23] | Plant response rating, Lambsquarters [8, 24] | Plant response rating, Barnyardgrass [10, 23] | Plant response rating, Barnyardgrass [10, 24] | Plant response rating, Pigweed [12, 23] | Plant response rating, Pigweed [12, 24] | Plant response rating, Cupgrass, Woolly [14, 25] | Plant response rating (0 to 100), Cupgrass, Woolly ([14]; preemergence) | Plant response rating, Cupgrass, Woolly [14, 27] | Plant response rating (0 to 100), Velvetleaf ([16]; preemergence) | Plant response rating, Pigweed [17, 25] | Plant response rating, Pigweed [17, 26] | Plant response rating (0 to 100), Pigweed ([17]; preemergence) | Plant response rating, Pigweed [17, 27] | Flatsedge plant response rating [19] | Barnyardgrass plant response rating [20] | Plant response rating, Barnyardgrass ([20]; Rate 125 g/ha) | Plant response rating, Barnyardgrass ([20]; Rate 250 g/ha) | Ducksalad plant response rating [21]
50: Plant response rating, Rice ([18]; Rate 250 g/ha)
20: Plant response rating, Corn [3, 23] | Plant response rating, Morningglory [6, 24]
45: Plant response rating (scale 0 to 100), Ducksalad [21]
90: Plant response rating, Surinam grass [11, 23] | Plant response rating, Cupgrass, Woolly [14, 26] | Plant response rating, Velvetleaf [16, 27] | Plant response rating (scale 0 to 100), Flatsedge [19] | Plant response rating (0 to 100), Sunflower [22]
70: Plant response rating, Morningglory [6, 23] | Plant response rating, Velvetleaf [16, 25] | Plant response rating, Velvetleaf [16, 26]
95: Plant response rating, Flatsedge ([19]; Rate 125 g/ha) | Plant response rating, Flatsedge ([19]; Rate 250 g/ha) | Plant response rating, Ducksalad ([21]; Rate 250 g/ha)
75: Plant response rating, Ducksalad ([21]; Rate 125 g/ha)
30: Plant response rating, Cocklebur [5, 23] | Plant response rating, Rice [9, 23] | Plant response rating, Rice ([18]; Rate 125 g/ha)

CCC(CC)c1ccn(C2CCN(c3ccc(F)c(C(F)(F)F)c3)C2=O)n1 (stereo not drawn) [Compound 144]
85: Plant response rating, Flatsedge ([19]; Rate 125 g/ha) | Plant response rating (scale 0 to 100), Flatsedge [19]
100: Plant response rating (0 to 100), Nightshade [1] | Plant response rating, Crabgrass [2, 23] | Plant response rating, Crabgrass [2, 24] | Plant response rating, Foxtail, Giant [4, 23] | Plant response rating, Foxtail, Giant [4, 24] | Plant response rating, Lambsquarters [8, 23] | Plant response rating, Lambsquarters [8, 24] | Plant response rating, Barnyardgrass [10, 23] | Plant response rating, Pigweed [12, 23] | Plant response rating, Pigweed [12, 24] | Plant response rating, Cupgrass, Woolly [14, 25] | Plant response rating, Cupgrass, Woolly [14, 26] | Plant response rating (0 to 100), Cupgrass, Woolly ([14]; preemergence) | Plant response rating, Cupgrass, Woolly [14, 27] | Plant response rating, Pigweed [17, 25] | Plant response rating, Pigweed [17, 26] | Plant response rating (0 to 100), Pigweed ([17]; preemergence) | Plant response rating, Pigweed [17, 27] | Barnyardgrass plant response rating [20] | Plant response rating, Barnyardgrass ([20]; Rate 125 g/ha) | Plant response rating, Barnyardgrass ([20]; Rate 250 g/ha) | Plant response rating (scale 0 to 100), Barnyardgrass [20] | Ducksalad plant response rating [21]
50: Plant response rating, Ducksalad ([21]; Rate 125 g/ha) | Plant response rating (scale 0 to 100), Ducksalad [21]
80: Plant response rating, Barnyardgrass [10, 24]
20: Plant response rating, Corn [3, 23] | Plant response rating (0 to 100), Velvetleaf ([16]; preemergence) | Plant response rating, Velvetleaf [16, 27] | Plant response rating, Rice ([18]; Rate 125 g/ha) | Plant response rating (scale 0 to 100), Rice [18]
70: Plant response rating, Surinam grass [11, 23] | Plant response rating (0 to 100), Sunflower [22]
40: Plant response rating, Sunflower [13] | Plant response rating, Sunflower [15]
0: Plant response rating, Corn [3, 24] | Plant response rating, Cocklebur [5, 23] | Plant response rating, Cocklebur [5, 24] | Plant response rating, Morningglory [6, 23] | Plant response rating, Morningglory [6, 24] | Plant response rating, Velvetleaf [7, 23] | Plant response rating, Velvetleaf [7, 24] | Plant response rating, Rice [9, 23] | Plant response rating, Rice [9, 24] | Plant response rating, Surinam grass [11, 24] | Plant response rating, Velvetleaf [16, 25] | Plant response rating, Velvetleaf [16, 26]
45: Plant response rating, Rice ([18]; Rate 250 g/ha)
75: Rice plant response rating [18]
95: Flatsedge plant response rating [19] | Plant response rating, Flatsedge ([19]; Rate 250 g/ha) | Plant response rating, Ducksalad ([21]; Rate 250 g/ha)
